The experiment concerns HCV genotype 1b replicon. As to the kind of experiment: HCV replicon assay, cell ELISA with antibody to replicon-encoded NS3/4A (genotype 1b replicon). Format: cell-based, hepatitis C virus. Particulars: Hepatitis C virus, 96 h, read-out: Replicon 1b IC50 (nM), HCV genotype 1b replicon cells, 96 hours incubation, NS3/4A ELISA readout. The essentials: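 Replicon-harbouring cells carrying neomycin phosphotransferase were incubated 96 h with a compound dilution series without G418. Replication was quantified indirectly by a cell ELISA detecting replicon-encoded NS3/4A. IC50 values were calculated relative to DMSO control with a four-parameter fit.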
(In general: Replicon systems follow genome replication, usually without infectious particles.)
`CNC(=O)c1c(-c2ccc(F)cc2)oc2cc(N(C)S(C)(=O)=O)c(-c3cc(OC)cc(-c4nc5c(C)ccnc5[nH]4)c3)cc12` [Example 316]: the IC50 is 2.8 nM.
With `CNC(=O)c1c(-c2ccc(F)cc2)oc2cc(N(C)S(C)(=O)=O)c(-c3cc(OC)cc(-c4nc5cc(Cl)cnc5[nH]4)c3)cc12` [Example 317], the IC50 worked out at 2.9 nM.
Consider `CNC(=O)c1c(-c2ccc(F)cc2)oc2cc(N(C)S(C)(=O)=O)c(-c3cccc(-c4nc5c(C)ccnc5[nH]4)c3O)cc12` [Example 318], for which the IC50 came to 18.7 nM.
Then `CNC(=O)c1c(-c2ccc(F)cc2)oc2cc(N(C)S(C)(=O)=O)c(-c3ccc(Cl)c(-c4nc5cccnc5[nH]4)c3)cc12` [Example 319], with 13.6 nM; and `CNC(=O)c1c(-c2ccc(F)cc2)oc2cc(N(C)S(C)(=O)=O)c(-c3ccc(Cl)c(-c4nc5ccc(OC)nc5[nH]4)c3)cc12` [Example 320], with 13.1 nM.
Turning to `CNC(=O)c1c(-c2ccc(F)cc2)oc2cc(N(C)S(C)(=O)=O)c(-c3ccc(Cl)c(-c4nc5c(C)ccnc5[nH]4)c3)cc12` [Example 321], the IC50 was 6.6 nM.
Turning to `CNC(=O)c1c(-c2ccc(F)cc2)oc2cc(N(C)S(C)(=O)=O)c(-c3ccc(Cl)c(-c4nc5cc(Cl)cnc5[nH]4)c3)cc12` [Example 322], the IC50 turned out to be 19.5 nM.
Consider `CNC(=O)c1c(-c2ccc(F)cc2)oc2cc(N(C)S(C)(=O)=O)c(-c3cc(C#N)cc(-c4nc5cccnc5[nH]4)c3)cc12` [Example 323], for which the IC50 turned out to be 2.4 nM.
Then `CNC(=O)c1c(-c2ccc(F)cc2)oc2cc(N(C)S(C)(=O)=O)c(-c3cc(C#N)cc(-c4nc5ccc(OC)nc5[nH]4)c3)cc12` [Example 324], with 3.5 nM.
Turning to `CNC(=O)c1c(-c2ccc(F)cc2)oc2cc(N(C)S(C)(=O)=O)c(-c3cc(C#N)cc(-c4nc5c(C)ccnc5[nH]4)c3)cc12` [Example 325], the IC50 stood at 3.2 nM.
`CNC(=O)c1c(-c2ccc(F)cc2)oc2cc(N(C)S(C)(=O)=O)c(-c3cccc(-c4nc5ccc(OC)nc5[nH]4)c3)cc12` [Example 327]: the IC50 amounted to 3.8 nM.
Regarding `CNC(=O)c1c(-c2ccc(F)cc2)oc2cc(N(C)S(C)(=O)=O)c(-c3cccc(-c4nc5ccc(=O)[nH]c5[nH]4)c3)cc12` [Example 328], the IC50 came out at 13.5 nM.
`CNC(=O)c1c(-c2ccc(F)cc2)oc2cc(N(C)S(C)(=O)=O)c(-c3cccc(-c4nc5ccc(OS(C)(=O)=O)nc5[nH]4)c3)cc12` [Example 329]: the IC50 turned out to be 4.9 nM.
In the case of `CNC(=O)c1c(-c2ccc(F)cc2)oc2cc(N(C)S(C)(=O)=O)c(-c3cccc(-c4nc5c(C)ccnc5[nH]4)c3)cc12` [Example 330], the IC50 was 2.7 nM.
Consider `CNC(=O)c1c(-c2ccc(F)cc2)oc2cc(N(C)S(C)(=O)=O)c(-c3cccc(-c4nc5cc(Cl)cnc5[nH]4)c3)cc12` [Example 331], for which the IC50 turned out to be 1.8 nM.
The same measure for `CNC(=O)c1c(-c2ccc(F)cc2)oc2cc(N(C)S(C)(=O)=O)c(-c3cccc(-c4nc5ccccc5n4C)c3)cc12` [Example 332]: 9.6 nM.
As to `CNC(=O)c1c(-c2ccc(F)cc2)oc2cc(N(C)S(C)(=O)=O)c(-c3cccc(-c4nc5ccncc5[nH]4)c3)cc12` [Example 333], the IC50 was found to be 6 nM.
The same measure for `CNC(=O)c1c(-c2ccc(F)cc2)oc2cc(N(C)S(C)(=O)=O)c(-c3ccc(F)c(-c4nc5ccncc5[nH]4)c3)cc12` [Example 334]: 3.3 nM.
For `CNC(=O)c1c(-c2ccc(F)cc2)oc2cc(N(C)S(C)(=O)=O)c(-c3cc(-c4nc5ccncc5[nH]4)ccc3F)cc12` [Example 335], the IC50 amounted to 26.4 nM.
Then `CNC(=O)c1c(-c2ccc(F)cc2)oc2cc(N(C)S(C)(=O)=O)c(-c3cccc(-c4nc5nccnc5[nH]4)c3)cc12` [Example 336], with 2.7 nM; and `CNC(=O)c1c(-c2ccc(F)cc2)oc2cc(N(C)S(C)(=O)=O)c(-c3ccc(F)c(-c4nc5nccnc5[nH]4)c3)cc12` [Example 337], with 7.8 nM; and `CNC(=O)c1c(-c2ccc(F)cc2)oc2cc(N(C)S(C)(=O)=O)c(-c3ccc(OC)c(-c4nc5nccnc5[nH]4)c3)cc12` [Example 338], with 1.5 nM.
For the compound `CNC(=O)c1c(-c2ccc(F)cc2)oc2cc(N(C)S(C)(=O)=O)c(-c3cc(OC)cc(-c4nc5nccnc5[nH]4)c3)cc12` [Example 339], the IC50 is 4 nM.
As for `CNC(=O)c1c(-c2ccc(F)cc2)oc2cc(N(C)S(C)(=O)=O)c(-c3ccc(Cl)c(-c4nc5nccnc5[nH]4)c3)cc12` [Example 340], the IC50 was 15.8 nM.
Then `CNC(=O)c1c(-c2ccc(F)cc2)oc2cc(N(C)S(C)(=O)=O)c(-c3cccc(-c4nc5cncnc5[nH]4)c3)cc12` [Example 341], with 14.6 nM; and `CNC(=O)c1c(-c2ccc(F)cc2)oc2cc(N(C)S(C)(=O)=O)c(-c3ccc(F)c(-c4nc5cncnc5[nH]4)c3)cc12` [Example 342], with 5.1 nM.
Then `CNC(=O)c1c(-c2ccc(F)cc2)oc2cc(N(C)S(C)(=O)=O)c(-c3ccc(OC)c(-c4nc5cncnc5[nH]4)c3)cc12` [Example 344], with 2.2 nM; and `CNC(=O)c1c(-c2ccc(F)cc2)oc2cc(N(C)S(C)(=O)=O)c(-c3cc(OC)cc(-c4nc5cncnc5[nH]4)c3)cc12` [Example 345], with 2.1 nM; and `CNC(=O)c1c(-c2ccc(F)cc2)oc2cc(N(C)S(C)(=O)=O)c(-c3cccc(-c4nc5cncnc5[nH]4)c3O)cc12` [Example 346], with 165 nM.
`CNC(=O)c1c(-c2ccc(F)cc2)oc2cc(N(C)S(C)(=O)=O)c(-c3ccc(Cl)c(-c4nc5cncnc5[nH]4)c3)cc12` [Example 347]: the IC50 was found to be 8.1 nM.
`CNC(=O)c1c(-c2ccc(F)cc2)oc2cc(N(C)S(C)(=O)=O)c(-c3cc(C#N)cc(-c4nc5cncnc5[nH]4)c3)cc12` [Example 348]: the IC50 amounted to 72.7 nM.
In the case of `CNC(=O)c1c(-c2ccc(F)cc2)oc2cc(N(C)S(C)(=O)=O)c(-c3ccc(OC)c(-c4nc5c(N)ncnc5[nH]4)c3)cc12` [Example 349], the IC50 was found to be 5.7 nM.
Take `CNC(=O)c1c(-c2ccc(F)cc2)oc2cc(N(C)S(C)(=O)=O)c(-c3cc(F)cc(-c4nc5c(N)ncnc5[nH]4)c3)cc12` [Example 350]: the IC50 turned out to be 0.7 nM.
The same measure for `CNC(=O)c1c(-c2ccc(F)cc2)oc2cc(N(C)S(C)(=O)=O)c(-c3cccc(-c4ccc5cccnc5c4)c3)cc12` [Example 353]: 4.2 nM; for `CNC(=O)c1c(-c2ccc(F)cc2)oc2cc(N(C)S(C)(=O)=O)c(-c3cccc(-c4cc5ccc(OC)cc5[nH]4)c3)cc12` [Example 356]: 5.9 nM; for `CNC(=O)c1c(-c2ccc(F)cc2)oc2cc(N(C)S(C)(=O)=O)c(-c3cccc(-c4cc5ccc(OCc6ccccc6)cc5[nH]4)c3)cc12` [Example 360]: 30.5 nM.
The same measure for `CNC(=O)c1c(-c2ccc(F)cc2)oc2cc(N(C)S(C)(=O)=O)c(-c3cccc(-c4cc5ccccc5[nH]4)c3)cc12` [Example 366, 5-(3-(1H-indol-2-yl)phenyl)-2-(4-fluorophenyl)-N-methyl-6-(N-methylmethylsulfonamido)benzofuran-3-carboxamide]: 4.2 nM; for `CNC(=O)c1c(-c2ccc(F)cc2)oc2cc(N(C)S(C)(=O)=O)c(-c3cccc(-c4[nH]c5ccccc5c4Cl)c3)cc12` [Example 381]: 5.1 nM.

Values taken from patent US20120328569A1, “INHIBITORS OF HEPATITIS C VIRUS NS5B POLYMERASE” (priority 2010, published 2012).
